{
  "source": "patent US20090131539A1",
  "about": "(priority 2005, published 2009)",
  "test_system": "Varroa mites",
  "test": "Test set-up 2004: honeybee colonies infested with Varroa mites, count of mites fallen down in the hive",
  "assay_type": "in vivo, Varroa destructor or Varroa jacobsoni",
  "method": "For the test set-up 2004 two bee colonies (A and B) were chosen, which were not used for honey production because of the medium applied for subsequent evaluation of residues and also because colony B was a swarming colony. Each colony consisted of approx. 25,000 animals. Both colonies were housed each in two so-called ‘Herold’ or ‘Zeitler’ hives with 10 frames. Their infestation, colony size, brood and general state was examined and approved.\nIn the beginning only hive A was treated with the mixture, hive B remained untreated in order to gain reference data. Over a period of 3½ months seven treatments took place with a longer break period of more than 30 days between two treatment cycles. At the end, two treatments with Perizin® were carried out in order to check on remaining mite infestation.\nApprox. […] The hive was opened and from the top the medium was finely distributed with the lance at 5 cm intervals into the spaces between the frames. First the lower than immediately the upper frame was treated.\nBefore the hive was covered again two minutes were allowed for aeration. The time needed for treatment of each hive was one to two minutes (without aeration).\nIn order to ascertain the amount of mites fallen down in the hive the floor boards of both hives (A and B) were lined entirely with two ‘diapers’ and covered with Vaseline coated paper. This was done in order to make sure that mites which might have been still alive were prevented from running away. This process was repeated after every mite count.\nThe colonies C to L represented reference colonies and served to ascertain the Varroa density at the location (those hives were only lined with diapers). As those were predominantly migrating colonies they were not available throughout the whole duration of the treatment, but they still represent the general situation.\nEspecially as many apiarists relocate their hives there is always infestation with Varroa in spite of preventive measures taken. When recording the mites found amounts of 50 animals were counted exactly.\nThe course of the test is outlined here in note form: […]",
  "data": [
    {"smiles": "O=CO", "note": "[formic acid]", "values": [
      {"measurement": "count of mites fallen down in the hive", "setting": "reference colony C, check-up 6 Sep. 2004, after formic acid (60%) evaporation of 30 Aug., amounts above 50 partially counted and extrapolated", "value": 1.200},
      {"measurement": "count of mites fallen down in the hive", "setting": "reference colony C, check-up 20 Sep. 2004, after second formic acid treatment of 6 Sep.", "value": 160},
      {"measurement": "count of mites fallen down in the hive", "setting": "reference colony D, check-up 6 Sep. 2004, after formic acid (60%) evaporation of 30 Aug., amounts above 50 partially counted and extrapolated", "value": 600},
      {"measurement": "count of mites fallen down in the hive", "setting": "reference colony D, check-up 20 Sep. 2004, after second formic acid treatment of 6 Sep.", "value": 40},
      {"measurement": "count of mites fallen down in the hive", "setting": "reference colony E, check-up 6 Sep. 2004, after formic acid (60%) evaporation of 30 Aug., amounts above 50 partially counted and extrapolated", "value": 400},
      {"measurement": "count of mites fallen down in the hive", "setting": "reference colony E, check-up 20 Sep. 2004, after second formic acid treatment of 6 Sep.", "value": 50},
      {"measurement": "count of mites fallen down in the hive", "setting": "reference colony F, check-up 6 Sep. 2004, after formic acid (60%) evaporation of 30 Aug.", "value": 50},
      {"measurement": "count of mites fallen down in the hive", "setting": "reference colony F, check-up 20 Sep. 2004, after second formic acid treatment of 6 Sep.", "value": 10},
      {"measurement": "count of mites fallen down in the hive", "setting": "reference colony G, check-up 6 Sep. 2004, after formic acid (60%) evaporation of 30 Aug., amounts above 50 partially counted and extrapolated", "value": 400},
      {"measurement": "count of mites fallen down in the hive", "setting": "reference colony G, check-up 20 Sep. 2004, after second formic acid treatment of 6 Sep.", "value": 100},
      {"measurement": "count of mites fallen down in the hive", "setting": "reference colony H, check-up 6 Sep. 2004, after formic acid (60%) evaporation of 30 Aug., amounts above 50 partially counted and extrapolated", "value": 500},
      {"measurement": "count of mites fallen down in the hive", "setting": "reference colony H, check-up 20 Sep. 2004, after second formic acid treatment of 6 Sep.", "value": 240},
      {"measurement": "count of mites fallen down in the hive", "setting": "reference colony I, check-up 6 Sep. 2004, after formic acid (60%) evaporation of 30 Aug.", "value": 50},
      {"measurement": "count of mites fallen down in the hive", "setting": "reference colony I, check-up 20 Sep. 2004, after second formic acid treatment of 6 Sep.", "value": 38},
      {"measurement": "count of mites fallen down in the hive", "setting": "reference colony J, check-up 6 Sep. 2004, after formic acid (60%) evaporation of 30 Aug., amounts above 50 partially counted and extrapolated", "value": 200},
      {"measurement": "count of mites fallen down in the hive", "setting": "reference colony J, check-up 20 Sep. 2004, after second formic acid treatment of 6 Sep.", "value": 44},
      {"measurement": "count of mites fallen down in the hive", "setting": "reference colony K, check-up 6 Sep. 2004, after formic acid (60%) evaporation of 30 Aug., amounts above 50 partially counted and extrapolated", "value": 200},
      {"measurement": "count of mites fallen down in the hive", "setting": "reference colony K, check-up 20 Sep. 2004, after second formic acid treatment of 6 Sep.", "value": 60},
      {"measurement": "count of mites fallen down in the hive", "setting": "reference colony L, check-up 6 Sep. 2004, after formic acid (60%) evaporation of 30 Aug., amounts above 50 partially counted and extrapolated", "value": 200},
      {"measurement": "count of mites fallen down in the hive", "setting": "reference colony L, check-up 20 Sep. 2004, after second formic acid treatment of 6 Sep.", "value": 100}
    ]}
  ]
}
